In ChEMBL document CHEMBL3046407, “Toxicity of monoterpenes against larvae and adults of Colorado potato beetle, Leptinotarsa decemlineata Say (Coleoptera: Chrysomelidae)” (2007):

Legend:
Format in all cases: functional
[1] = system: Leptinotarsa decemlineata; experiment: Insecticidal activity against third-instar larval stage of Leptinotarsa decemlineata infested potato leaves assessed as mortality at 20 ul after 96 hr (reference value: 3.3 +/- 3.3%)
[2] = system: Leptinotarsa decemlineata; experiment: Insecticidal activity against third-instar larval stage of Leptinotarsa decemlineata infested potato leaves assessed as mortality at 20 ul after 24 hr relative to control
[3] = system: Leptinotarsa decemlineata; experiment: Insecticidal activity against second-instar larval stage of Leptinotarsa decemlineata infested potato leaves assessed as mortality at 10 ul after 48 hr (reference value: 3.3 +/- 3.3%)
[4] = system: Leptinotarsa decemlineata; experiment: Insecticidal activity against adult Leptinotarsa decemlineata infested potato leaves assessed as mortality at 20 ul after 96 hr relative to control
[5] = system: Leptinotarsa decemlineata; experiment: Insecticidal activity against second-instar larval stage of Leptinotarsa decemlineata infested potato leaves assessed as mortality at 20 ul after 48 hr (reference value: 3.3 +/- 3.3%)
[6] = system: Leptinotarsa decemlineata; experiment: Insecticidal activity against third-instar larval stage of Leptinotarsa decemlineata infested potato leaves assessed as mortality at 20 ul after 48 hr (reference value: 3.3 +/- 3.3%)
[7] = system: Leptinotarsa decemlineata; experiment: Insecticidal activity against adult Leptinotarsa decemlineata infested potato leaves assessed as mortality at 10 ul after 96 hr relative to control
[8] = system: Leptinotarsa decemlineata; experiment: Insecticidal activity against second-instar larval stage of Leptinotarsa decemlineata infested potato leaves assessed as mortality at 10 ul after 96 hr (reference value: 3.3 +/- 3.3%)
[9] = system: Leptinotarsa decemlineata; experiment: Insecticidal activity against adult Leptinotarsa decemlineata infested potato leaves assessed as mortality at 20 ul after 48 hr relative to control
[10] = system: Leptinotarsa decemlineata; experiment: Insecticidal activity against third-instar larval stage of Leptinotarsa decemlineata infested potato leaves assessed as mortality at 10 ul after 12 hr relative to control
[11] = system: Leptinotarsa decemlineata; experiment: Insecticidal activity against second-instar larval stage of Leptinotarsa decemlineata infested potato leaves assessed as mortality at 20 ul after 12 hr relative to control
[12] = system: Leptinotarsa decemlineata; experiment: Insecticidal activity against third-instar larval stage of Leptinotarsa decemlineata infested potato leaves assessed as mortality at 10 ul after 48 hr (reference value: 3.3 +/- 3.3%)
[13] = system: Leptinotarsa decemlineata; experiment: Insecticidal activity against third-instar larval stage of Leptinotarsa decemlineata infested potato leaves assessed as mortality at 20 ul after 12 hr relative to control
[14] = system: Leptinotarsa decemlineata; experiment: Insecticidal activity against second-instar larval stage of Leptinotarsa decemlineata infested potato leaves assessed as mortality at 20 ul after 24 hr (reference value: 3.3 +/- 3.3%)
[15] = system: Leptinotarsa decemlineata; experiment: Insecticidal activity against first-instar larval stage of Leptinotarsa decemlineata infested potato leaves assessed as mortality at 10 ul after 96 hr relative to control
[16] = system: Leptinotarsa decemlineata; experiment: Insecticidal activity against adult Leptinotarsa decemlineata infested potato leaves assessed as mortality at 20 ul after 12 hr relative to control
[17] = system: Leptinotarsa decemlineata; experiment: Insecticidal activity against first-instar larval stage of Leptinotarsa decemlineata infested potato leaves assessed as mortality at 20 ul after 12 hr relative to control
[18] = system: Leptinotarsa decemlineata; experiment: Insecticidal activity against adult Leptinotarsa decemlineata infested potato leaves assessed as mortality at 20 ul after 24 hr relative to control
[19] = system: Leptinotarsa decemlineata; experiment: Insecticidal activity against third-instar larval stage of Leptinotarsa decemlineata infested potato leaves assessed as mortality at 10 ul after 96 hr (reference value: 3.3 +/- 3.3%)
[20] = system: Leptinotarsa decemlineata; experiment: Insecticidal activity against third-instar larval stage of Leptinotarsa decemlineata infested potato leaves assessed as mortality at 10 ul after 24 hr relative to control
[21] = system: Leptinotarsa decemlineata; experiment: Insecticidal activity against adult Leptinotarsa decemlineata infested potato leaves assessed as mortality at 10 ul after 24 hr relative to control
[22] = system: Leptinotarsa decemlineata; experiment: Insecticidal activity against first-instar larval stage of Leptinotarsa decemlineata infested potato leaves assessed as mortality at 20 ul after 96 hr relative to control
[23] = system: Leptinotarsa decemlineata; experiment: Insecticidal activity against first-instar larval stage of Leptinotarsa decemlineata infested potato leaves assessed as mortality at 10 ul after 48 hr relative to control
[24] = system: Leptinotarsa decemlineata; experiment: Insecticidal activity against second-instar larval stage of Leptinotarsa decemlineata infested potato leaves assessed as mortality at 10 ul after 24 hr (reference value: 3.3 +/- 3.3%)
[25] = system: Leptinotarsa decemlineata; experiment: Insecticidal activity against first-instar larval stage of Leptinotarsa decemlineata infested potato leaves assessed as mortality at 20 ul after 24 hr relative to control
[26] = system: Leptinotarsa decemlineata; experiment: Insecticidal activity against first-instar larval stage of Leptinotarsa decemlineata infested potato leaves assessed as mortality at 20 ul after 48 hr relative to control
[27] = system: Leptinotarsa decemlineata; experiment: Insecticidal activity against first-instar larval stage of Leptinotarsa decemlineata infested potato leaves assessed as mortality at 10 ul after 12 hr relative to control
[28] = system: Leptinotarsa decemlineata; experiment: Insecticidal activity against second-instar larval stage of Leptinotarsa decemlineata infested potato leaves assessed as mortality at 20 ul after 96 hr (reference value: 3.3 +/- 3.3%)
[29] = system: Leptinotarsa decemlineata; experiment: Insecticidal activity against adult Leptinotarsa decemlineata infested potato leaves assessed as mortality at 10 ul after 48 hr relative to control
[30] = system: Leptinotarsa decemlineata; experiment: Insecticidal activity against second-instar larval stage of Leptinotarsa decemlineata infested potato leaves assessed as mortality at 10 ul after 12 hr relative to control
[31] = system: Leptinotarsa decemlineata; experiment: Insecticidal activity against first-instar larval stage of Leptinotarsa decemlineata infested potato leaves assessed as mortality at 10 ul after 24 hr relative to control
[32] = system: Leptinotarsa decemlineata; experiment: Insecticidal activity against adult Leptinotarsa decemlineata infested potato leaves assessed as mortality at 10 ul after 12 hr relative to control

| SMILES | mortality [1] | mortality [2] | mortality [3] | mortality [4] | mortality [5] | mortality [6] | mortality [7] | mortality [8] | mortality [9] | mortality [10] | mortality [11] | mortality [12] | mortality [13] | mortality [14] | mortality [15] | mortality [16] | mortality [17] | mortality [18] | mortality [19] | mortality [20] | also measured |
| --- | --- | --- | --- | --- | --- | --- | --- | --- | --- | --- | --- | --- | --- | --- | --- | --- | --- | --- | --- | --- | --- |
| CC(C)=CCC/C(C)=C\CO [NEROL] | 46.7% | 16.7% | 36.7% | 13.3% | 46.7% | 30% | 23.3% | 56.7% | 10% | 26.7% | 10% | 73.3% | 16.7% | 16.7% | 56.7% | 6.7% | 10% | 6.7% | 80% | 56.7% | mortality [21]: 16.7%; mortality [22]: 56.7%; mortality [23]: 36.7%; mortality [24]: 16.7%; mortality [25]: 16.7%; mortality [26]: 46.7%; mortality [27]: 13.3%; mortality [28]: 53.3%; mortality [29]: 20%; mortality [30]: 13.3%; mortality [31]: 16.7%; mortality [32]: 13.3% |
| C/C=C(C)/C=C/C=C(C)C [ALLO-OCIMENE] | 26.7% | 23.3% | 50% | 23.3% | 53.3% | 23.3% | 3.3% | 66.7% | 20% | 0% | 30% | 0% | 23.3% | 43.3% | 56.7% | 3.3% | 16.7% | 20% | 0% | 0% | mortality [21]: 3.3%; mortality [22]: 56.7%; mortality [23]: 46.7%; mortality [24]: 40%; mortality [25]: 33.3%; mortality [26]: 46.7%; mortality [27]: 13.3%; mortality [28]: 60%; mortality [29]: 3.3%; mortality [30]: 23.3%; mortality [31]: 33.3%; mortality [32]: 3.3% |
| CC1=CCC(C(C)C)=CC1 [GAMMA-TERPINENE] | 50% | 16.7% | 100% | 100% | 100% | 33.3% | 90% | 100% | 100% | 16.7% | 100% | 30% | 10% | 100% | 100% | 46.7% | 100% | 96.7% | 33.3% | 26.7% | mortality [21]: 40%; mortality [22]: 100%; mortality [23]: 100%; mortality [24]: 100%; mortality [25]: 100%; mortality [26]: 100%; mortality [27]: 43.3%; mortality [28]: 100%; mortality [29]: 66.7%; mortality [30]: 90%; mortality [31]: 100%; mortality [32]: 20% |
